Measured values as given in patent US20100137313A1 (ASTRAZENECA AB, priority 2008, published 2010).

Biological target: S. pneumoniae Topoisomerase IV ATPase (ParE) (Streptococcus pneumoniae serotype 4, UniProt Q59961)
Experiment: S. pneumoniae Topoisomerase IV ATPase inhibition
Type: biochemical
Details: values marked * are an average of two or more data points, read-out: % Inh (13 μM) of S. pneumoniae Topoisomerase IV ATPase
Outline: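 S. pneumoniae ParE (1.25 nM) ATPase with 160 μM ATP and 5 μg/ml sheared DNA in pH 8.0 Tris, Mg2+, DTT, Brij-35; phosphate detected by malachite green/molybdate at 650 nm. Normalised to 2% DMSO (0%) and 20 μM EDTA (100%); IC50 from 10 concentrations.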

S. pneumoniae Topoisomerase IV ATPase (ParE), sequence (Q59961 whole entry): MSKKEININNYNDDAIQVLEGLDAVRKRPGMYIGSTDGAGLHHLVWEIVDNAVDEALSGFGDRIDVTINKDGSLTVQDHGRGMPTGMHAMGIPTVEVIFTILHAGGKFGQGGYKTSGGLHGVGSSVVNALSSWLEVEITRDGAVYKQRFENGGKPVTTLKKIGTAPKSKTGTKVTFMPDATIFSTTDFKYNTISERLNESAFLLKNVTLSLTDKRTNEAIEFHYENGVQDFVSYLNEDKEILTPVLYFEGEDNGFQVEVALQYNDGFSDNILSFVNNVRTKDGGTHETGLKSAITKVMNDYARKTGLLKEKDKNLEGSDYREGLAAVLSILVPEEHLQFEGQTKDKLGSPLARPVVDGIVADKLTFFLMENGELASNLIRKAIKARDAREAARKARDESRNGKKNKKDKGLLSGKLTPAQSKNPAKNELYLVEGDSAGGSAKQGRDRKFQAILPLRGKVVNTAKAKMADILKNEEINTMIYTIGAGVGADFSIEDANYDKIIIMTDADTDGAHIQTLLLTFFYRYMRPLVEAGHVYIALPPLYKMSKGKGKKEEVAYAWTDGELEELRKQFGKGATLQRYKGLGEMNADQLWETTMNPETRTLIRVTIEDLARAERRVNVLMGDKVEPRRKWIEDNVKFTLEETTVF

Compound	inhibition at 13 µM
Cc1cc(C(F)(F)F)nn1-c1nc(Nc2ccc(F)c(Cl)c2)ncc1-c1cncc(C(=O)O)c1 [Example 319, 5-{2-[(3-chloro-4-fluorophenyl)amino]-4-[5-methyl-3-(trifluoromethyl)-1H-pyrazol-1-yl]pyrimidin-5-yl}pyridine-3-carboxylic acid]	90.6%
Cc1cccc(Nc2ncc(-c3cccc(/C=C/C(=O)O)c3)c(-n3ccc(C(F)(F)F)n3)n2)c1 [Example 694, (2E)-3-(3-{2-[(3-methylphenyl)amino]-4-[3-(trifluoromethyl)-1H-pyrazol-1-yl]pyrimidin-5-yl}phenyl)prop-2-enoic acid]	100%
O=C(O)/C=C/c1cccc(-c2cnc(Nc3cc(F)cc(F)c3)nc2N2CCOCC2)c1 [Example 404, (E)-3-{3-[2-(3,5-Difluoro-phenylamino)-4-morpholin-4-yl-pyrimidin-5-yl]-phenyl}-acrylic acid]	81%
Fc1ccc(Nc2ncc(-c3cncnc3)c(N3CCOCC3)n2)cc1Cl [Example 76, N-(3-chloro-4-fluorophenyl)-4-morpholin-5,5′-bipyrimidin-2-amine]	79.3%
COc1cc(C#N)cc(Nc2ncc(-c3cccc(/C=C/C(=O)O)c3)c(-n3nc(C(F)(F)F)cc3C)n2)c1 [Example 729, (2E)-3-(3-{2-[(3-cyano-5-methoxyphenyl)amino]-4-[5-methyl-3-(trifluoromethyl)-1H-pyrazol-1-yl]pyrimidin-5-yl}phenyl)prop-2-enoic acid]	89%
COc1ncc(-c2cnc(Nc3ccc(F)c(Cl)c3)nc2NCCc2ccncc2)cn1 [Example 461, N^2-(3-chloro-4-fluorophenyl)-2′-methoxy-N^4-[2-(pyridin-4-yl)ethyl]-5,5′-bipyrimidine-2,4-diamine]	100%
Cc1cc(C(F)(F)F)nn1-c1nc(Nc2ccc3c(c2)CCC3)ncc1-c1cccc(/C=C/C(=O)O)c1 [Example 656, (2E)-3-(3-{2-(2,3-dihydro-1H-inden-5-ylamino)-4-[5-methyl-3-(trifluoromethyl)-1H-pyrazol-1-yl]pyrimidin-5-yl}phenyl)prop-2-enoic acid]	78%
COc1cc(Nc2ncc(-c3cnc(OC)nc3)c(-n3nc(C(F)(F)F)cc3C)n2)cc(C(F)(F)F)c1 [Example 885, 2′-methoxy-N-(3-methoxy-5-(trifluoromethyl)phenyl)-4-(5-methyl-3-(trifluoromethyl)-1H-pyrazol-1-yl)-5,5′-bipyrimidin-2-amine]	100%
O=S1(=O)CCN(CCCNc2nc(Nc3ccc(F)c(Cl)c3)ncc2-c2cncnc2)CC1 [Example 48, N^2-(3-chloro-4-fluorophenyl)-N^4-[3-(1,1-dioxo-1,4-thiazinan-4-yl)propyl]-5-pyrimidin-5-ylpyrimidine-2,4-diamine]	79.8%
CONC(=O)c1cc(-c2cnc(Nc3cc(OC)cc(OC)c3)nc2-n2nc(C(F)(F)F)cc2C)cnc1OC [Example 810, 5-{2-[(3,5-dimethoxyphenyl)amino]-4-[5-methyl-3-(trifluoromethyl)-1H-pyrazol-1-yl]pyrimidin-5-yl}-N,2-dimethoxypyridine-3-carboxamide]	100%
CCOC(=O)c1cc2cc(-c3cnc(Nc4ccc(F)c(Cl)c4)nc3NCCCOC)ccc2[nH]1 [Example 1052, Ethyl 5-(2-(3-chloro-4-fluorophenylamino)-4-(3-methoxyproylamino)pyrimidin-5-yl)-1H-indole-2-carboxylate]	0%
Cc1noc(CCNC(=O)c2cncc(-c3cnc(Nc4ccc(F)c(Cl)c4)nc3-n3nc(C(F)(F)F)cc3C)c2)n1 [Example 929, 5-(2-(3-chloro-4-fluorophenylamino)-4-(5-methyl-3-(trifluoromethyl)-1H-pyrazol-1-yl)pyrimidin-5-yl)-N-(2-(3-methyl-1,2,4-oxadiazol-5-yl)ethyl)nicotinamide]	82%
COc1cc(F)cc(Nc2ncc(-c3cnc(OC)c(C(=O)NS(C)(=O)=O)c3)c(-n3ccc(C(F)(F)F)n3)n2)c1 [Example 897, 5-(2-(3-fluoro-5-methoxyphenylamino)-4-(3-(trifluoromethyl)-1H-pyrazol-1-yl)pyrimidin-5-yl)-2-methoxy-N-(methylsulfonyl)nicotinamide]	100%
COc1cc(F)cc(Nc2ncc(-c3cc(C(=O)O)c(=O)n(C)c3)c(-n3nc(C(F)(F)F)cc3C)n2)c1 [Example 921, 5-(2-(3-fluoro-5-methoxyphenylamino)-4-(5-methyl-3-(trifluoromethyl)-1H-pyrazol-1-yl)pyrimidin-5-yl)-1-methyl-2-oxo-1,2-dihydropyridine-3-carboxylic acid]	99%
CN(C)CCCNc1nc(Nc2ccc(F)c(Cl)c2)ncc1-c1cncc(-c2nnn[nH]2)c1 [Example 938, 5-(5-(1H-tetrazol-5-yl)pyridin-3-yl)-N2-(3-chloro-4-fluorophenyl)-N4-(3-(dimethylamino)propyl)pyrimidin-2,4-diamine]	91%
CONC(=O)c1cncc(-c2cnc(Nc3ccc(F)c(Cl)c3)nc2-n2nc(-c3nccs3)cc2C)c1 [Example 545, 5-{2-[(3-chloro-4-fluorophenyl)amino]-4-[5-methyl-3-(1,3-thiazol-2-yl)-1H-pyrazol-1-yl]pyrimidin-5-yl}-N-methoxypyridine-3-carboxamide]	100%
O=C(O)/C=C/c1cccc(-c2cnc(Nc3ccc(F)c(F)c3)nc2N2CCOCC2)c1 [Example 350, (E)-3-(3-(2-(3,4-difluorophenylamino)-4-morpholinopyrimidin-5-yl)phenyl)acrylic acid]	69%
COc1cc(Nc2ncc(-c3cnc(SC)c(C(=O)O)c3)c(-n3ccc(C(F)(F)F)n3)n2)cc(OC)c1 [Example 851, 5-{2-[(3,5-dimethoxyphenyl)amino]-4-[3-(trifluoromethyl)-1H-pyrazol-1-yl]pyrimidin-5-yl}-2-(methylsulfanyl)pyridine-3-carboxylic acid]	98%
COc1cc(Nc2ncc(-c3cnc(OC)c(C(=O)O)c3)c(-n3ccc(C(F)(F)F)n3)n2)cc(OC)c1 [Example 675, 5-{2-[(3,5-dimethoxyphenyl)amino]-4-[3-(trifluoromethyl)-1H-pyrazol-1-yl]pyrimidin-5-yl}-2-methoxypyridine-3-carboxylic acid]	100%
CS(=O)(=O)NC(=O)c1cccc(-c2cnc(Nc3ccc(F)c(Cl)c3)nc2-n2ccc(C(F)(F)F)n2)c1 [Example 1002, 3-(2-(3-Chloro-4-fluorophenylamino)-4-(3-(trifluoromethyl)-1H-pyrazol-1-yl)pyrimidin-5-yl)-N-(methylsulfonyl)benzamide]	100%
Cc1cc(F)cc(Nc2ncc(-c3cncc(C(=O)O)c3)c(-n3nc(C(F)(F)F)cc3C)n2)c1 [Example 771, 5-{2-[(3-fluoro-5-methylphenyl)-amino]-4-[5-methyl-3-(trifluoromethyl)-1H-pyrazol-1-yl]pyrimidin-5-yl}pyridine-3-carboxylic acid]	100%
CN(C)CCCNc1nc(Nc2ccc(F)c(Cl)c2)ncc1-c1cn([Si](C)(C)C(C)(C)C)c2ccccc12 [Example 16, 5-[1-(tert-butyldimethylsilyl)-1H-indol-3-yl]-N^2-(3-chloro-4-fluorophenyl)-N^4-[3-(dimethylamino)propyl] pyrimidin-2,4-diamine]	55.3%
COc1ncc(-c2cnc(Nc3ccc(F)c(Cl)c3)nc2-n2nc(C(F)(F)F)cc2C)cc1C(N)=O [Example 1105, 5-(2-(3-chloro-4-fluorophenylamino)-4-(5-methyl-3-(trifluoromethyl)-1H-pyrazol-1-yl)pyrimidin-5-yl)-2-methoxynicotinamide]	82%
Cn1cc(CNc2nc(Nc3ccc(F)c(Cl)c3)ncc2-c2cccc(/C=C/C(=O)O)c2)cn1 [Example 298, (E)-3-(3-(2-(3-chloro-4-fluorophenylamino)-4-((1-methyl-1H-pyrazol-4-yl)methylamino)pyrimidin-5-yl)phenyl)acrylic acid]	80.7%
CCOC(=O)c1cncc(-c2cnc(Nc3ccc(F)c(Cl)c3)nc2N[C@H](C)C(=O)OC)c1 [Example 113, ethyl 5-[2-[(3-chloro-4-fluorophenyl)amino]-4-[[(2R)-1-methoxy-1-oxopropan-2-yl]amino]pyrimidin-5-yl]pyridine-3-carboxylate]	34.3%
CS(=O)(=O)NCCCNc1nc(Nc2ccc(F)c(Cl)c2)ncc1-c1cncnc1 [Ex 378, N-(3-(2-(3-chloro-4-fluorophenylamino)-5,5′-bipyrimidin-4-ylamino)propyl) methanesulfonamide]	75.2%
CCOC(=O)c1cncc(-c2cnc(Nc3ccc(F)c(Cl)c3)nc2N2CCCC(CO)C2)c1 (stereo not drawn) [Example 118, ethyl 5-[2-[(3-chloro-4-fluorophenyl)amino]-4-[3-(hydroxymethyl)piper-idin-1-yl]pyrimidin-5-yl]pyridine-3-carboxylate]	80.6%
CCOC(=O)c1sc(-c2cnc(Nc3ccc(F)c(Cl)c3)nc2NCCCOC)nc1-c1ccccc1 [Example 506, ethyl 2-{2-[(3-chloro-4-fluorophenyl)amino]-4-[(3-methoxypropyl)amino]pyrimidin-5-yl}-4-phenyl-1,3-thiazole-5-carboxylate]	33%
CS(=O)(=O)CC(=O)c1cncc(-c2cnc(Nc3ccc(F)c(Cl)c3)nc2-n2ccc(C(F)(F)F)n2)c1 [Example 993, 1-(5-(2-(3-chloro-4-fluorophenylamino)-4-(3-(trifluoromethyl)-1H-pyrazol-1-yl)pyrimidin-5-yl)pyridin-3-yl)-2-(methylsulfonyl)ethanone]	100%
COc1ncc(-c2cnc(Nc3cc(C)cc(F)c3)nc2-n2ccc(C(F)(F)F)n2)cc1C(=O)O [Example 754, 5-{2-[(3-fluoro-5-methylphenyl)-amino]-4-[3-(trifluoromethyl)-1H-pyrazol-1-yl]pyrimidin-5-yl}-2-methoxypyridine-3-carboxylic acid]	100%
